Columns and labels:
[1] = Stability of antisense ODNs to serum nucleases; type: in vitro ADME; conditions: for resistance to serum nucleases: modified with phosphorothioate
Syk mRNA = test: RT-PCR / Southern hybridization of Syk mRNA in monocytes; type: cell-based, human; conditions: 2 days
Experimental: FIG. 8. Effect of Syk antisense ODNs on Syk mRNA in monocytes. Total RNA was isolated from monocytes (1×10^5 cells/ml) treated with complexes of 4 μg/ml of LIPOFECTAMINE and the ODNs (1.0 μM each of the linear control or the linear Syk antisense ODN, or 0.2 μM each of the stem-loop control or the stem-loop Syk antisense ODN) for 2 days, and cDNA was synthesized from total RNA with random hexanucleotide primers. PCR was performed with Syk cDNA as templates with two Syk primers (Syk-H and Syk-M). PCR products were analyzed by Southern hybridization and hybridized bands were visualized by chemiluminescent detection reagents.
(§1) Antisense or scrambled control ODNs were modified to be protected from nucleases. One phosphodiester backbone at the 5-prime terminus and two at the 3-prime terminus were modified with phosphorothioate. Prediction of secondary structures of Syk mRNA (Law et al, J. Biol. Chem. 269:12310 (1994)) and ODNs were carried out with the MacDNASIS program (Hitachi Software, San Bruno, Calif.) on a Macintosh computer. Linear 17 mer Syk antisense ODN, having the sequence of 5′-[…]-3′ (SEQ ID NO:9), targets the area surrounding the translation initiation codon of Syk mRNA. Stem-loop Syk antisense ODN is a 57 mer containing sequences complementary to three different target sites, target I (the area of the translation initiation, nucleotide no. 159 to 173) , target II (451 to 463) , and target III (802 to 816) of Syk mRNA (Law et al, J. Biol. Chem. 269:12310 (1994)) (FIG. 5). The stem-loop Syk antisense ODN forms a stem and loop structure by itself and was designed to contain minimal intramolecular secondary structures in the loop domain (FIG. 6) . The sequence of the stem-loop Syk antisense ODN is 5′ - […] C-3′ (SEQ ID NO:10). Linear 17 mer control ODN has a random sequence of 5′-[…]-3′ (SEQ ID NO:11). Stem-loop 61 mer control ODN has a random sequence of 5′ -[…]- 3′ (SEQ ID NO:12) within the loop domain. The linear and stem-loop control ODNs were also modified at both the 5-prime and 3-prime termini by phosphorothioates. Preparation of liposomes: One μg each of the control scrambled phosphodiester ODNs, the linear and stem-loop Syk antisense ODNs in 50 μl of PBS were incubated with 4 μg (2 μl) of LIPOFECTAMINE™ (GIBCO BRL, Life Technologies, Inc. Gaithersburg, Md.). The ODN-liposome complexes were allowed to form at the room temperature for 45 min. Monocytes isolation and culture: Peripheral blood mononuclear cells from healthy individuals were isolated by a standard adherence procedure (Darby et al, J. Immunol. 152:5429 (1994)). Briefly, the heparinized blood was centrifuged on Ficoll-Hypaque (Lymphocyte Separation Medium; Organon Teknika, Durham, N.C.) and interface cells were washed twice in PBS. […]

[2] = tested on: FcγRIIA mediated phagocytosis in monocytes; test: Phagocytosis of IgG-sensitized RBCs (EA) by cultured monocytes treated with ODN-liposome complexes; type: cell-based, human; conditions: for phagocytic index (PI): untreated PI 220±8.8
Experimental: Monocytes (1×10^5 cells/ml) were incubated with complexes of 4 μg/ml of LIPOFECTAMINE and ODNs (1.0 μM each of the linear control or the linear Syk antisense ODNs, or 0.2 μM each of the stem-loop control or the stem-loop Syk antisense ODN) for 2 days, and the phagocytosis of IgG-sensitized red blood cells (EA) was examined. Phagocytic index (PI)=number of ingested RBCs/100 cells. Each bar represents the mean±SEM of three separate experiments.
as §1, with “PBS. Mononuclear cells were resuspended in complete medium containing RPMI 1640 (GIBCO BRL, Life Technologies, Inc. Gaithersburg, Md.) with 10% heat-inactivated FCS and 2 mM L-glutamine. Cells were allowed to adhere at 37° C. onto tissue culture flasks precoated with FCS. After 45 to 90 min non-adherent cells were removed with extensive washing in HBSS. Cells were harvested by vigorous agitation. The yield of monocytes ranged from 2–6×10^7 cells/500 ml of blood. Monocytes were routinely more than 98% viable judged by trypan blue exclusion. Isolated monocytes were maintained in RPMI 1640 supplemented with L-glutamine (2 mM) and 10% heat-inactivated FCS at 37° C. with 5% CO2. Oligodeoxynucleotides treatment of cells. 1×10^5 Monocytes were incubated with ODN-liposome complexes containing 2 μg/ml of LIPOFECTAMINE and 0.5 μM of the linear control, 0.5 μM of the linear Syk antisense ODN or 0.1 μM of the stem-loop control, 0.1 μM of the stem-loop Syk antisense ODN in 0.3 ml of RPMI 1640 medium without FCS in a 24-well plate (Falcon; Becton Dickinson Labware, Lincoln Park, N.J.) at 37° C. for 4 h. Medium was added to a 1 ml final volume with RPMI 1640 containing 10% FCS and cells were then incubated at 37° C. for 2 days.” for “PBS.”

[3] = tested on: COS-1 cells transfected with FcγRIIIA-α/γ; test: Binding (rosetting) of EA by transfected COS-1 cells; type: cell-based
Experimental: (§2) FcγRIIIA isoforms, FcγRIIIA-γγ, FcγRIIIA-ζζ, were generated by cotransfection of COS-1 cells with cDNA of γ or ζ as well as cDNA of α. Transfections of cDNAs were carried out with a modified DEAE-Dextran method. Briefly, 300,000 COS-1 cells were seeded on 35 mm well plates 24 hours prior to transfection. Plates of 70 to 80% confluence were washed twice and incubated for 30 minutes with Dulbeco's Modification of Eagle's Medium (DMEM, Gibco BRL, Grand Island, N.Y.) before transfection. Four μg of plasmid DNA (0.5 μg/μl) was slowly added to 1 ml of a transfection buffer containing Nu medium (DMEM with 10% of NuSerum [Collaborative Biomedical, Two Oak Park, Bedford, Mass.], 1 mg/ml of DEAE Dextran and 100 μM chloroquine. The transfection buffer containing DNA was added to COS-1 cells with incubation for 4 hours at 37° C. Cells were then shocked with 10%. DMSO in phosphate buffered saline (PBS) for 2 minutes, washed twice with DMEM and grown in NuSerum supplemented DMEM. Cells were studied 48 hours following transfection.
(§3) Binding and pragocytosis of IgG-sensitized RSCs (EA): Sterile sheep red blood cells (10^9/ml) in calcium and magnesium-free PBS were sensitized by incubation with an equal volume of a subagglutinating titer of rabbit anti-sheep RBC antibody (Cappel Laboratories, Cochranville, Pa.). The IgG-sensitized RBCs (EA) were washed twice with PBS and resuspended to a final concentration of 10^9/ml for overlaying on transfected COS-1 cells. Cells were examined for rosetting (>10 EA per COS-1 cell) and phagocytosis as described previously (Indik et al, J. Clin. Invest. 88:A66 (1991)). For the analysis of phagocytosis, COS-1 cells bound with EA (after three washings) were subjected to a brief hypotonic shock (35 seconds) with hypotonic PBS to remove surface bound EA. The cells were then stained with Wright-Giemsa staining solutions, and phagocytosis (ingested EA) was determined by light microscopy. Results obtained were analyzed by Student's T-test.

[4] = tested on: COS-1 cells transfected with FcγRIIIA-α/γ; test: Phagocytosis of IgG-sensitized RBCs (EA) by transfected COS-1 cells; type: cell-based; conditions: for phagocytic activity restored after washing: pretreated 400 μM
Experimental: as §2, §3

[5] = ODN 0.2 μM, LIPOFECTAMINE complexes, 2 days
[6] = ODN 1 μM, LIPOFECTAMINE complexes, 2 days

**Q.** With “5′ - GGGGGGGCTGTCAGCCATGCCGTGTCTTGTCTTTGTCGCTTCTTGAGGAGCCCCCC C-3′ (SEQ ID NO:10) (antisense GGGGGGGCTGTCAGCCATGCCGTGTCTTGTCTTTGTCGCTTCTTGAGGAGCCCCCCC; DNA, backbone and methylation of C not given here; stem-loop hairpin, phosphorothioates at both termini, further chemistry not fully specified) [stem-loop Syk antisense ODN, 57 mer stem-loop ODN complementary to three target sites of human Syk mRNA, phosphorothioate-modified termini]” as the compound, how does the “stability when complexed with liposomes” value ([1]; complexed with liposomes) read?
**A.** markedly improved

**Q.** What about the “resistance to serum nucleases” value [1] of the same compound?
**A.** partial resistance

**Q.** And the stability in serum ([1]; with phosphorothioate modifications)?
**A.** exceptional stability

**Q.** What about the “effect on Syk mRNA” value (Syk mRNA; ODN 0.2 μM) of the same compound?
**A.** completely eliminated

**Q.** And the “reduction of the phagocytic signal compared with a mixture of three linear antisense oligonucleotides” value [2]?
**A.** more dramatically

**Q.** And the “reduction in phagocytosis (phagocytic index)” value [2, 5]?
**A.** 89%

**Q.** What about the “phagocytic index (PI)” value [2, 5] of the same compound?
**A.** 24±4.2

**Q.** Which results are given for “5′ -ATGGAATCATCTTGGGCATTCATTCGTTCCTCAAAGAAGAATATGAA- 3′ (SEQ ID NO:12) (listed as DNA, chemistry not given here) [stem-loop control, Stem-loop 61 mer scrambled control ODN]”?
**A.** effect on Syk mRNA (Syk mRNA; ODN 0.2 μM): did not reduce; effect on FcγRIIA mediated phagocytosis ([2]; ODN 0.2 μM): did not significantly affect

**Q.** With “5′-CGCTGTCAGCCATGCCG-3′ (SEQ ID NO:9) (DNA, backbone and methylation of C not given here; phosphorothioate linkages at both 5' and 3' termini, further chemistry not fully specified) [linear Syk antisense ODN, Linear 17 mer, phosphorothioate-modified termini, targets area surrounding translation initiation codon of human Syk mRNA]” as the compound, how does the “resistance to serum nucleases” value [1] read?
**A.** partial resistance

**Q.** What about the “effect on Syk mRNA” value (Syk mRNA; ODN 1.0 μM) of the same compound?
**A.** substantially reduced

**Q.** What about the “Phagocytosis reduced by (phagocytic index)” value [2, 6] of the same compound?
**A.** 49%

**Q.** And the “phagocytic index (PI)” value [2, 6]?
**A.** 113±12.3

**Q.** What does the source list for “5′-GCCCAAGATGATTCCAG-3′ (SEQ ID NO:11) (phosphorothioate linkages at both termini, number not given here) [linear control]”?
**A.** effect on Syk mRNA (Syk mRNA; ODN 1.0 μM): did not reduce; effect on FcγRIIA mediated phagocytosis ([2]; ODN 1 μM): did not significantly affect

**Q.** For N#CC(C#N)=Cc1ccc(O)c(O)c1 [Tyr23, tyrphostin 23], which “effect on binding of EA” value [3] is on record?
**A.** did not affect

**Q.** And the “Rosetting (% Cells)” value ([3]; Tyr23 25 μM)?
**A.** 52 ± 9 % Cells

**Q.** What about the “Rosetting (% Cells)” value ([3]; Tyr23 50 μM) of the same compound?
**A.** 52 ± 8 % Cells

**Q.** And the “Rosetting (% Cells)” value ([3]; Tyr23 100 μM)?
**A.** 49 ± 7 % Cells

**Q.** What about the “Rosetting (% Cells)” value ([3]; Tyr23 200 μM) of the same compound?
**A.** 47 ± 5 % Cells

**Q.** What about the “Rosetting (% Cells)” value ([3]; Tyr23 400 μM) of the same compound?
**A.** 48 ± 3 % Cells

**Q.** What about the “Rosetting (% Cells)” value ([3]; Tyr23 400 μM + washing) of the same compound?
**A.** 44 ± 6 % Cells

**Q.** And the “PI (Phagocytic Index)” value ([4]; Tyr23 25 μM)?
**A.** 68 ± 4

**Q.** What about the “PI (Phagocytic Index)” value ([4]; Tyr23 50 μM) of the same compound?
**A.** 26 ± 7

**Q.** What about the “PI (Phagocytic Index)” value ([4]; Tyr23 100 μM) of the same compound?
**A.** 16 ± 6

**Q.** And the “PI (Phagocytic Index)” value ([4]; Tyr23 200 μM)?
**A.** 1.2 ± 1

**Q.** And the “PI (Phagocytic Index)” value ([4]; Tyr23 400 μM)?
**A.** 0

**Q.** What about the “PI (Phagocytic Index)” value ([4]; Tyr23 400 μM + washing (3 hr wash)) of the same compound?
**A.** 63 ± 7

**Q.** What about the IC50 ([4]; dose dependent, p<0.01, read-out: concentration giving 50% inhibition of phagocytosis) of the same compound?
**A.** 25 µM

**Q.** And the “concentration giving complete inhibition of phagocytosis” value ([4]; p<0.01)?
**A.** 200 to 400 µM

**Q.** What about the “phagocytic activity restored after washing” value ([4]; 3 hr wash) of the same compound?
**A.** partially

**Q.** And the “phagocytic activity restored after washing” value ([4]; overnight wash (data not shown))?
**A.** completely

**Q.** What about the “viability of transfectants on inhibition of phagocytosis” value ([4]; pretreated with 400 μM followed by washing) of the same compound?
**A.** not associated with reduction in viability

Source: patent US7148014B2, “Methods of inhibiting phagocytosis” (University of Pennsylvania, priority 1993, dated 2006)
